A word on the EC50: it is the concentration that produces a half-maximal response.

Data set [1] concerns the target T1, PPARα (Homo sapiens, UniProt Q07869).
T1 construct: full-length PPARs plasmid DNA; expressed in transfected cells; host or cells: CV-1 cells
T1 sequence (Q07869 1-468): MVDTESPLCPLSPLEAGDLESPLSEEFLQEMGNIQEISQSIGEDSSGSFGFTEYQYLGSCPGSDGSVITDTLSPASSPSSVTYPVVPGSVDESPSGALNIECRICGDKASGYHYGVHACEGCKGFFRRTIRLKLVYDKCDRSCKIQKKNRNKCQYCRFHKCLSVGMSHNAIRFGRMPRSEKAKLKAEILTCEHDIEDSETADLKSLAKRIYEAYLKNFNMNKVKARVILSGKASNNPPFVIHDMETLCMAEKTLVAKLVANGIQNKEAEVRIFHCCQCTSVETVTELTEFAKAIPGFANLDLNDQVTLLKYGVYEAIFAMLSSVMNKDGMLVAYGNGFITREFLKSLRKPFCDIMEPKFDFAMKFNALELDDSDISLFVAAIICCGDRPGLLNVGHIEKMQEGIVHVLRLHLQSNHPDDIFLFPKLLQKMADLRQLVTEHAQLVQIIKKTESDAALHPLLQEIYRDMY
Description: Transfection assay (luciferase reporter) in CV-1 cells, PPARα. The class given is cell-based. The following applies: full-length PPAR plasmid, luciferase normalized with β-galactosidase. How it is done:
(§1) The compounds prepared in Examples were tested for PPARδ activity by a transfection assay. In addition, the compounds were tested for selectivity for PPARα and PPARγ, the subtypes of PPARs, and also tested for toxicity by a MTT assay.
(§2) A transfection assay was performed using CV-1 cells. The culture of the cells was performed using a DMEM medium (10% FBS, DBS (delipidated) and 1% penicillin/streptomycin) on a 96-well plate in a 5% carbon dioxide-containing incubator at 37° C. The test was performed in four steps consisting of cell inoculation, transfection, treatment of the compounds, and analysis of results. Specifically, CV-1 cells were inoculated onto a 96-well plate at a concentration of 5,000 cells/well, and after 24 hours, the cells were transfected. In the cell transfection, full-length PPARs plasmid DNA, reporter DNA that has luciferase activity and thus allows the identification of PPARs, and β-galactosidase DNA that provides the information of transfection efficiency, were used as transfection reagents. Each of the compounds developed in the present invention was dissolved in dimethylsulfoxide (DMSO) and transfected into the cells at various concentrations using media. The cells were cultured in an incubator for 24 and then lysed with lysis buffer. The lysed cells were measured for luciferase and β-galactosidase activities using a luminometer and a microplate reader. The measured luciferase values were normalized with the β-galactosidase values and graphed. From the graph, EC50 values were determined.

For data set [2], the target named is T2, PPARδ (Homo sapiens, UniProt Q03181).
T2 sequence (Q03181 1-441): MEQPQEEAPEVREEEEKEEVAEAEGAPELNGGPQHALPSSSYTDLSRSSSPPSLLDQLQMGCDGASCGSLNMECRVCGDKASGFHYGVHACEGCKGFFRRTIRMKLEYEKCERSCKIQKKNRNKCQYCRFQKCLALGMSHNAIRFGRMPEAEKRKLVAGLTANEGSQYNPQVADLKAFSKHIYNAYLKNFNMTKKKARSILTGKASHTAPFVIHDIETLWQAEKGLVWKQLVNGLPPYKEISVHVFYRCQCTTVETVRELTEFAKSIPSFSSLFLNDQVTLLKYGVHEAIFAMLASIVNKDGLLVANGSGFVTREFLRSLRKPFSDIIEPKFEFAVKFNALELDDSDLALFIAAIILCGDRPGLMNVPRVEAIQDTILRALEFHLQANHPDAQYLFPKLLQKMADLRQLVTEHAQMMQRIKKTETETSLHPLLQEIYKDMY
The data set is described as follows: Transfection assay (luciferase reporter) in CV-1 cells, PPARδ. The class given is cell-based. The note with it: full-length PPAR plasmid, luciferase normalized with β-galactosidase. Details: full-length PPARs plasmid DNA; expressed in transfected cells; host or cells: CV-1 cells. The protocol:
as §1
as §2, with “The test was performed in four steps consisting of cell inoculation, transfection, treatment of the compounds, and analysis of results.” left out
On the technique in general: In a reporter assay the amount or activity of a reporter protein is the signal.

Data set [3] is described as follows: MTT assay, cytotoxicity. The note with it: African green monkey, CV-1 cells, read-out: LC50 Cytotoxicity. The class given is cell-based. The protocol:
The compounds of Examples 47-97 according to the present invention were tested for cytotoxicity using a MTT assay. MTT is a water-soluble yellow substance, but if it is introduced into living cells, it will be degenerated into a water-insoluble purple crystal due to dehydrogenase contained in mitochondria. If this substance is dissolved in dimethylsulfoxide and then measured for absorbance at 550 nm, cytotoxicity can be assayed. The test method is as follows.
CV-1 cells were first inoculated onto a 96-well plate at a concentration of 5,000 cells/well. The inoculated cells were cultured in a 5% carbon dioxide-containing humidified incubator at 37° C. for 24 hours, and then treated with the inventive compounds at various concentrations. After 24 hours of culture, a MTT reagent was added to the cultured cells. After 15 minutes of culture, the resulting purple crystal was dissolved in dimethylsulfoxide and then measured for absorbance using a microplate reader. From the measured absorbance, cytotoxicity was assayed.
(Tetrazolium dyes change colour on reduction, which living cells bring about.)

Data set [4] has as its target T3, PPARγ (Homo sapiens, UniProt P37231).
T3 construct: full-length PPARs plasmid DNA; expressed in transfected cells; host or cells: CV-1 cells
T3 sequence (P37231 1-505): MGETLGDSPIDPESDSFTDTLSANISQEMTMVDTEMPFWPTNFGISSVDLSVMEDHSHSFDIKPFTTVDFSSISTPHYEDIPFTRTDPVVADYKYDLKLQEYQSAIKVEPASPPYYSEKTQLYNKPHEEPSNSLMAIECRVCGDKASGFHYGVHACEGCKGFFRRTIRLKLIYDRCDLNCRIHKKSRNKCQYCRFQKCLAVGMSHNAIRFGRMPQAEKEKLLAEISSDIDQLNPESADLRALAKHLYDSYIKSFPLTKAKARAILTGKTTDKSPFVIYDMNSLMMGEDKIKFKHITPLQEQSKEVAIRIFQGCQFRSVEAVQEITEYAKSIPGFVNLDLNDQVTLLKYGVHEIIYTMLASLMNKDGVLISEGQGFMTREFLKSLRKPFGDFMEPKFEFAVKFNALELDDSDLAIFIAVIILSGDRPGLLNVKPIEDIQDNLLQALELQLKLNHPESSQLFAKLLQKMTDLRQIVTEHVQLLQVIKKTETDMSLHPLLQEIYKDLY
The data set is described as follows: Transfection assay (luciferase reporter) in CV-1 cells, PPARγ. Format: cell-based. The note with it: full-length PPAR plasmid, luciferase normalized with β-galactosidase. The protocol: as §1
as §2, with “The test was performed in four steps consisting of cell inoculation, transfection, treatment of the compounds, and analysis of results.” left out

Data set [5] deals with T2, PPARδ. The following applies: background art, cited from earlier work.
In data set [6] the target is T4, PPARγ (Mus musculus, UniProt P37238).
T4 sequence (P37238 1-505): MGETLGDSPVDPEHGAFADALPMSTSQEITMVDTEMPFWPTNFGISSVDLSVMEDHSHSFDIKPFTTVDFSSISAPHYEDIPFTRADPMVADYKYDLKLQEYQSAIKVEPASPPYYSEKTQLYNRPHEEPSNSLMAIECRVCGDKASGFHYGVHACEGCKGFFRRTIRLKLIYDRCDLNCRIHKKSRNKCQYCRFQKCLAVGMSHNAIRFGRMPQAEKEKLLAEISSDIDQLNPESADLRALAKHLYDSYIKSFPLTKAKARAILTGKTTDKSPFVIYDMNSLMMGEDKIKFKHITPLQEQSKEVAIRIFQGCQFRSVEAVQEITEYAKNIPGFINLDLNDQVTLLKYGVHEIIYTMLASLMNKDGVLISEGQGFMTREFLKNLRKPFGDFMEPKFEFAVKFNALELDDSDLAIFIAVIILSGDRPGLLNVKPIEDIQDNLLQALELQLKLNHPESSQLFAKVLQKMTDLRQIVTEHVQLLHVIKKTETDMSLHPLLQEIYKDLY
The note with it: test on rodents, background art; cited from earlier work.

Where two headings read alike, the source gives them in different places.

For `Cc1cc(SC(Cc2ccc(F)cc2F)c2sc(-c3ccc(C(F)(F)F)c(F)c3)nc2C)ccc1OCC(=O)O` (centres unmarked) [Example 96, 2-[4-[1-[2-[3-fluoro-4-(trifluoromethyl)phenyl]-4-methylthiazol-5-yl]-2-(2,4-difluorophenyl)ethylthio]-2-methylphenoxy]acetic acid], the EC50 in data set [1] is above 10 µM; in data set [2], 0.0048 µM. Further, the CC50 at 24 h in data set [3] was above 10 µM. Also, the “EC50 PPARγ” value in data set [4] is “ia”.

Consider `Cc1cc(SC(Cc2cc(F)ccc2Cl)c2sc(-c3ccc(C(F)(F)F)c(F)c3)nc2C)ccc1OCC(=O)O` (centres unmarked) [Example 97, 2-[4-[2-(2-chloro-5-fluorophenyl)-1-[2-[3-fluoro-4-(trifluoromethyl)phenyl]-4-methylthiazol-5-yl]ethylthio]-2-methylphenoxy]acetic acid], for which, in data set [1], the “EC50 PPARα” value is given as “ia”. In data set [2], this compound registered an EC50 of 0.0174 µM. The CC50 at 24 h in data set [3] is above 30 µM. Besides, the “EC50 PPARγ” value in data set [4] was “ia”.

Regarding `CCCc1c(OCCCOc2ccc(OCC(=O)O)cc2)ccc(C(C)=O)c1O` [Example L-165041], the “selectivity for hPPARδ than PPARα and PPARγ” value in data set [5] is recorded as 10 fold. Further, in data set [5] (hPPARδ), the EC50 is 0.53 µM. The “selectivity for PPARγ” value in data set [6] was “almost no selectivity”.

Values taken from US20090054493A1, “THIAZOLE DERIVATIVES AS PPAR DELTA LIGANDS AND THEIR MANUFACTURING PROCESS” (priority 2005, published 2009).
